Experimental data reported in ChEMBL document CHEMBL1146136, “Optimization of 2,4-diaminopyrimidines as GHS-R antagonists: side chain exploration” (Bioorg Med Chem Lett, 2006).

Experiments:
[1] = molecular target: T1, Dihydrofolate reductase (Homo sapiens) (UniProt P00374); assay: Inhibition of human DHFR receptor at 10 uM
T1 sequence (whole entry): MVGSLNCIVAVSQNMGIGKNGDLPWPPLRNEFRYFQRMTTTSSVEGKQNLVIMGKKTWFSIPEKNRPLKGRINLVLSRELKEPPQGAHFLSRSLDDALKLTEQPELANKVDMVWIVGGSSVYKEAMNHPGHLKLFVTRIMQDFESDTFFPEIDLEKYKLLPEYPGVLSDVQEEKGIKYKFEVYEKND

[2] = molecular target: T2, Growth hormone secretagogue receptor type 1 (Homo sapiens, UniProt Q92847); assay: Inhibition of human GHS receptor by FLIPR; type: functional
T2 sequence (Q92847 whole entry): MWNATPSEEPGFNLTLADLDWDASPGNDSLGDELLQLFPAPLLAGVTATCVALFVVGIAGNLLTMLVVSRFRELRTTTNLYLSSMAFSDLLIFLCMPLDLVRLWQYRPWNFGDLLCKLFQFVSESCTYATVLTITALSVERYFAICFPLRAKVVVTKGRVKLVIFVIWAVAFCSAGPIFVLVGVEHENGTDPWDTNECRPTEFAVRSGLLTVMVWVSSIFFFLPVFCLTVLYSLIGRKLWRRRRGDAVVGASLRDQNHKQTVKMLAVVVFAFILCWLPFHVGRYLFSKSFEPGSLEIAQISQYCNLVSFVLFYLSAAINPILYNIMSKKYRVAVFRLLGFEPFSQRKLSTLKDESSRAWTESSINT

[3] = molecular target: T2, Growth hormone secretagogue receptor type 1; assay: Inhibition of human GHS receptor by binding assay
[4] = molecular target: T1, Dihydrofolate reductase (Homo sapiens); assay: Inhibition of human DHFR receptor at 1 uM
[5] = molecular target: T1, Dihydrofolate reductase (Homo sapiens); assay: Inhibition of human DHFR receptor at 30 uM

Row | Compound | inhibition [1] | IC50 [2] | IC50 [3] | inhibition [4] | inhibition [5]
1 | CS(=O)(=O)c1ccc(CNc2ccc(-c3c(N)nc(N)nc3CNC3CCCC3)cc2)cc1 |  | 3430 nM | 122 nM |  | 
2 | CCc1nc(N)nc(NC)c1-c1ccc(NCc2ccc(S(C)(=O)=O)cc2)cc1 | 82% | 69 nM | 37 nM | 41% | 
3 | CCNc1nc(N)nc(CC)c1-c1ccc(NCc2ccc(S(C)(=O)=O)cc2)cc1 |  | > 10000 nM | 244 nM |  | 
4 | CCc1nc(N)nc(N(C)C)c1-c1ccc(NCc2ccc(S(C)(=O)=O)cc2)cc1 |  | 772 nM | 192 nM |  | 
5 | CCc1nc(N)nc(NC2CC2)c1-c1ccc(NCc2ccc(S(C)(=O)=O)cc2)cc1 |  | > 10000 nM | 601 nM |  | 
6 | CCCCCc1nc(N)nc(N)c1-c1ccc(NCc2ccc(S(C)(=O)=O)cc2)cc1 |  | 211 nM | 19 nM |  | 
7 | CCc1nc(N)nc(NCC(C)C)c1-c1ccc(NCc2ccc(S(C)(=O)=O)cc2)cc1 |  | 2480 nM | 199 nM |  | 
8 | CS(=O)(=O)c1ccc(CNc2ccc(-c3c(N)nc(N)nc3CN)cc2)cc1 |  | 7160 nM | 634 nM |  | 
9 | CCCNc1nc(N)nc(CC)c1-c1ccc(NCc2ccc(S(C)(=O)=O)cc2)cc1 |  | 237 nM | 151 nM |  | 
10 | CCc1nc(N)nc(Nc2ccccc2)c1-c1ccc(NCc2ccc(S(C)(=O)=O)cc2)cc1 |  | > 10000 nM | 700 nM |  | 
11 | CNCc1nc(N)nc(N)c1-c1ccc(NCc2ccc(S(C)(=O)=O)cc2)cc1 |  | 1380 nM | 279 nM |  | 
12 | CCc1nc(N)nc(N2CCOCC2)c1-c1ccc(NCc2ccc(S(C)(=O)=O)cc2)cc1 |  | > 10000 nM | 3250 nM |  | 
13 | CCc1nc(N)nc(NCc2ccccc2)c1-c1ccc(NCc2ccc(S(C)(=O)=O)cc2)cc1 |  | 354 nM | 248 nM |  | 
14 | CN(C)Cc1nc(N)nc(N)c1-c1ccc(NCc2ccc(S(C)(=O)=O)cc2)cc1 |  | 2580 nM | 186 nM |  | 
15 | CS(=O)(=O)c1ccc(CNc2ccc(-c3c(N)nc(N)nc3[C@@H]3CC4C=CC3C4)cc2)cc1 (stereo not given in full) | 45% | 283 nM |  |  | 
16 | CS(=O)(=O)c1ccc(CNc2ccc(-c3c(N)nc(N)nc3CNC3CC3)cc2)cc1 |  | 945 nM | 65 nM |  | 
17 | CS(=O)(=O)c1ccc(CNc2ccc(-c3c(N)nc(N)nc3CNCC3CCCC3)cc2)cc1 |  | 316 nM | 16 nM |  | 
18 | CCOC(=O)CCc1nc(N)nc(N)c1-c1ccc(NCc2ccc(S(C)(=O)=O)cc2)cc1 |  | 82 nM |  |  | 
19 | CCCCCCc1nc(N)nc(N)c1-c1ccc(NCc2ccc(S(C)(=O)=O)cc2)cc1 |  | 62 nM | 6 nM |  | 
20 | CS(=O)(=O)c1ccc(CNc2ccc(-c3c(N)nc(N)nc3[C@H]3CC4C=CC3C4)cc2)cc1 (stereo not given in full) | 38% | 66 nM |  |  | 55%
21 | CS(=O)(=O)c1ccc(CNc2ccc(-c3c(N)nc(N)nc3C3CC4CCC3C4)cc2)cc1 (stereo not given) | 21% | 137 nM |  | 3% | 
22 | CCc1nc(N)nc(N(CC)CC)c1-c1ccc(NCc2ccc(S(C)(=O)=O)cc2)cc1 |  | 380 nM | 450 nM |  | 
23 | CS(=O)(=O)c1ccc(CNc2ccc(-c3c(N)nc(N)nc3COCc3ccco3)cc2)cc1 |  | 9.6 nM | 2.7 nM |  | 
24 | CCCCCCCCc1nc(N)nc(N)c1-c1ccc(NCc2ccc(S(C)(=O)=O)cc2)cc1 |  | 57 nM | 5.2 nM |  | 
25 | CN(Cc1ccccc1)Cc1nc(N)nc(N)c1-c1ccc(NCc2ccc(S(C)(=O)=O)cc2)cc1 |  | 69 nM | 4 nM |  | 
26 | CCc1nc(N)nc(NCCO)c1-c1ccc(NCc2ccc(S(C)(=O)=O)cc2)cc1 |  | 3080 nM | 354 nM |  | 
27 | CC(C)CCNCc1nc(N)nc(N)c1-c1ccc(NCc2ccc(S(C)(=O)=O)cc2)cc1 |  | 1420 nM | 61 nM |  | 
28 | CS(=O)(=O)c1ccc(CNc2ccc(-c3c(N)nc(N)nc3COCc3cccnc3)cc2)cc1 |  | 187 nM | 38 nM |  | 
29 | CCCCNc1nc(N)nc(CC)c1-c1ccc(NCc2ccc(S(C)(=O)=O)cc2)cc1 |  | 736 nM | 276 nM |  | 
30 | CS(=O)(=O)c1ccc(CNc2ccc(-c3c(N)nc(N)nc3C3COc4ccccc4O3)cc2)cc1 (stereo not given) |  | 180 nM |  |  | 

The remaining lines, values ahead:

Row | inhibition [1] | IC50 [2] | IC50 [3] | inhibition [4] | inhibition [5] | Compound
31 | 84% | 57 nM |  |  |  | CS(=O)(=O)c1ccc(CNc2ccc(-c3c(N)nc(N)nc3[C@H]3CCCO3)cc2)cc1
32 |  | 1.9 nM | 0.4 nM |  |  | CC(C)=CCOCc1nc(N)nc(N)c1-c1ccc(NCc2ccc(S(C)(=O)=O)cc2)cc1
33 | 97% | 6.8 nM | 2.8 nM | 88% |  | CC(C)CCOCc1nc(N)nc(N)c1-c1ccc(NCc2ccc(S(C)(=O)=O)cc2)cc1
34 |  | 10 nM |  |  |  | CN(Cc1nc(N)nc(N)c1-c1ccc(NCc2ccc(S(C)(=O)=O)cc2)cc1)c1ccc(F)cc1
35 |  | 49 nM | 96 nM |  |  | CS(=O)(=O)c1ccc(CNc2ccc(-c3c(N)nc(N)nc3CNCc3ccccc3)cc2)cc1
36 | 50% | 36 nM |  | 16% |  | CS(=O)(=O)c1ccc(CNc2ccc(-c3c(N)nc(N)nc3C3CCCCC3)cc2)cc1
37 |  | 14 nM | 5.4 nM |  |  | CC(C)c1nc(N)nc(N)c1-c1ccc(NCc2ccc(S(C)(=O)=O)cc2)cc1
38 |  | 38 nM |  |  |  | CS(=O)(=O)c1ccc(CNc2ccc(-c3c(N)nc(N)nc3C3Cc4ccccc4O3)cc2)cc1 (stereo not given)
39 | 25% | 54 nM |  |  | 38% | CS(=O)(=O)c1ccc(CNc2ccc(-c3c(N)nc(N)nc3[C@@H]3CCCO3)cc2)cc1
40 | > 99% | 37 nM | 9.7 nM | > 99% |  | CCc1nc(N)nc(N)c1-c1ccc(NCc2ccc(S(C)(=O)=O)cc2)cc1
41 |  | 53 nM | 7.5 nM |  |  | COCc1nc(N)nc(N)c1-c1ccc(NCc2ccc(S(C)(=O)=O)cc2)cc1
42 |  | 12 nM | 1.5 nM |  |  | CS(=O)(=O)c1ccc(CNc2ccc(-c3c(N)nc(N)nc3CNc3ccc(F)cc3)cc2)cc1
43 |  | 14 nM |  |  |  | CS(=O)(=O)c1ccc(CNc2ccc(-c3c(N)nc(N)nc3C3CCC3)cc2)cc1
44 |  | 9.7 nM | 3.4 nM |  |  | Cc1ccc(COCc2nc(N)nc(N)c2-c2ccc(NCc3ccc(S(C)(=O)=O)cc3)cc2)o1
45 |  | 32 nM | 11 nM |  |  | CCCCc1nc(N)nc(N)c1-c1ccc(NCc2ccc(S(C)(=O)=O)cc2)cc1
46 | 84% | 9 nM | 2.5 nM | 42% |  | CN(Cc1nc(N)nc(N)c1-c1ccc(NCc2ccc(S(C)(=O)=O)cc2)cc1)c1ccccc1
47 | 58% | 41 nM |  | 29% |  | CS(=O)(=O)c1ccc(CNc2ccc(-c3c(N)nc(N)nc3CN3CCc4ccccc4C3)cc2)cc1
48 |  | 34 nM |  |  |  | CS(=O)(=O)c1ccc(CNc2ccc(-c3c(N)nc(N)nc3CN3Cc4ccccc4C3)cc2)cc1
49 | 87% | 11 nM |  | 47% |  | CC(C)(C)c1nc(N)nc(N)c1-c1ccc(NCc2ccc(S(C)(=O)=O)cc2)cc1
50 |  | 7.1 nM | 0.3 nM |  |  | CS(=O)(=O)c1ccc(CNc2ccc(-c3c(N)nc(N)nc3COCc3ccccc3)cc2)cc1
51 |  | 38 nM | 6 nM |  |  | CCCCCCCc1nc(N)nc(N)c1-c1ccc(NCc2ccc(S(C)(=O)=O)cc2)cc1
52 |  | 5.4 nM | 2 nM |  |  | CS(=O)(=O)c1ccc(CNc2ccc(-c3c(N)nc(N)nc3CCC(=O)NCc3cccc(Cl)c3)cc2)cc1
53 |  | 40 nM | 10 nM |  |  | CC(C)Cc1nc(N)nc(N)c1-c1ccc(NCc2ccc(S(C)(=O)=O)cc2)cc1
54 |  | 13 nM |  |  |  | CS(=O)(=O)c1ccc(CNc2ccc(-c3c(N)nc(N)nc3CN3CCc4ccccc43)cc2)cc1
55 |  | 19 nM |  |  |  | CS(=O)(=O)c1ccc(CNc2ccc(-c3c(N)nc(N)nc3C3CC3)cc2)cc1
56 |  | 9.1 nM | 5.5 nM |  |  | CS(=O)(=O)c1ccc(CNc2ccc(-c3c(N)nc(N)nc3CNc3ccccc3)cc2)cc1
57 | 97% | 21 nM |  | 73% |  | CS(=O)(=O)c1ccc(CNc2ccc(-c3c(N)nc(N)nc3C3CCCC3)cc2)cc1
58 | 93% | 3 nM | 0.4 nM | 82% |  | Cc1cc(C)cc(CNC(=O)CCc2nc(N)nc(N)c2-c2ccc(NCc3ccc(S(C)(=O)=O)cc3)cc2)c1
